Laboratory results: US20250263408A1 (Uniquest Pty Ltd, priority 2022, published 2025)

How the values were obtained:
Ba/F3-Syk cells = target: T1, Ba/F3-Syk cells (Homo sapiens, UniProt P43405); experiment: Ba/F3 Proliferation Assay, Ba/F3-Syk cells (Resazurin); type: cell-based; conditions: 48-hour incubation
T1 construct: fused on or other part: Possible but unprinted fusion partner: TEL (ETV6), the usual partner for Ba/F3 lines transformed by Syk; Nothing on a partner is printed

[1] = system: Ba/F3-WT (wild type) cells; experiment: Ba/F3 Proliferation Assay, Ba/F3-WT (wild type) cells with mIL-3 (Resazurin); type: cell-based; conditions: Ba/F3-WT cells +mIL-3, 48-hour incubation
Syk = target: T2, Syk (Homo sapiens, UniProt P43405); experiment: Syk Biochemical Assay (ADP-Glo luminescence); conditions: ATP 40 μM final, 60 minutes, read-out: SYK Biochem IC50
T2 construct: purchased Promega
Description: Compounds were serially diluted in 100% DMSO, prior to an intermediate dilution in water. In a low volume white 384-well Proxiplate (Perkin Elmer), 1 μL of compound (0.4% final DMSO) was added to 3 μL of 10 ng/well Syk (Promega) and 0.2 mg/mL Poly-E4Y1 substrate (Promega) in assay buffer (final 40 mM Tris-HCl pH 7.4, 20 mM MgCl2, 0.1 mg/mL BSA) for 5 minutes. The reaction was initiated by addition of 1 μL of ATP (40 μM final) and allowed to proceed for 60 minutes at room temperature. The reaction was terminated by addition of 5 μL of ADP-Glo Reagent Mix (Promega) containing 1 mM MgCl2 for 45 minutes at room temperature. 10 μL of Kinase Detection Reagent (Promega) was added and incubated for 10 minutes at room temperature, before luminescence was measured using an Ensight Multimode Plate Reader (Perkin Elmer).

| Structure (SMILES) | EC50 (Ba/F3-Syk cells) [nM] | EC50 ([1]; Mus musculus, BaF3, 48 h) [nM] | IC50 (Syk) [nM] | EC50 [1] [nM] |
| --- | --- | --- | --- | --- |
| C[C@H]1CNC[C@@H](COc2nc(-c3cnn(C)c3)cc3ncccc23)O1 (relative stereo) [Compound 2.24, 7-(1-methyl-1H-pyrazol-4-yl)-5-{[(rel-2S,6S)-6-methylmorpholin-2-yl]methoxy}-1,6-naphthyridine] | 135 | 1500 | 128 |  |
| C[C@@H]1CNC[C@@H](COc2nc(-c3cnn(C)c3)cc3ncccc23)O1 (relative stereo) [Compound 2.25, 7-(1-methyl-1H-pyrazol-4-yl)-5-{[(rel-2S,6R)-6-methylmorpholin-2-yl]methoxy}-1,6-naphthyridine] | 62.1 | 1510 | 39 |  |
| C[C@H]1CO[C@H](COc2nc(-c3cnn(C)c3)cc3ncccc23)CN1 (relative stereo) [Compound 2.26, 7-(1-methyl-1H-pyrazol-4-yl)-5-{[(rel-2S,5S)-5-methylmorpholin-2-yl]methoxy}-1,6-naphthyridine] | 216 | 1450 | 131 |  |
| C[C@@H]1CO[C@H](COc2nc(-c3cnn(C)c3)cc3ncccc23)CN1 (relative stereo) [Compound 2.27, 7-(1-methyl-1H-pyrazol-4-yl)-5-{[(rel-2S,5R)-5-methylmorpholin-2-yl]methoxy}-1,6-naphthyridine] | 305 | 1500 | 247 |  |
| CC(C)(C)n1cc(-c2cc3ncccc3c(OC[C@H]3OC[C@@H]4C[C@H]3N4)n2)cn1 (relative stereo) [Compound 2.106, 7-(1-tert-butyl-1H-pyrazol-4-yl)-5-{[rel-(1R,2S,5S)-3-oxa-6-azabicyclo[3.1.1]heptan-2-yl]methoxy}-1,6-naphthyridine] | 55.5 |  | 23.6 | 575 |
| Cc1ccnc2cc(-c3cnn(C(C)(C)C)c3)nc(OC[C@@H]3CNCC(C)(C)O3)c12 (stereo in doubt) [Compound 14.6, 7-(1-tert-butyl-1H-pyrazol-4-yl)-5-[(6,6-dimethylmorpholin-2-yl)methoxy]-4-methyl-1,6-naphthyridine] | 6.1 | 2670 | 12.9 |  |
| Cn1cc(-c2cc3ncccc3c(OCC3CNCCO3)n2)cn1 (centres unmarked) [Compound 2.1, 7-(1-methyl-1H-pyrazol-4-yl)-5-[(morpholin-2-yl)methoxy]-1,6-naphthyridine] | 92.8 | 1250 | 50.8 |  |
| Cn1cc(-c2cc3ncccc3c(OC[C@H]3CNCCO3)n2)cn1 [Compound 2.2, 7-(1-methyl-1H-pyrazol-4-yl)-5-{[(2R)-morpholin-2-yl]methoxy}-1,6-naphthyridine] | 355 | 1760 | 130 |  |
| Cn1cc(-c2cc3ncccc3c(OC[C@@H]3CNCCO3)n2)cn1 [Compound 2.3, 7-(1-methyl-1H-pyrazol-4-yl)-5-{[(2S)-morpholin-2-yl]methoxy}-1,6-naphthyridine] | 105 | 2350 | 39 |  |
| C[C@@H](Oc1nc(-c2cnn(C)c2)cc2ncccc12)[C@@H]1CNCCO1 [Compound 2.5, 7-(1-methyl-1H-pyrazol-4-yl)-5-[(1R)-1-[(2S)-morpholin-2-yl]ethoxy]-1,6-naphthyridine] | 76.7 | 2540 | 38.9 |  |
| CCn1cc(-c2cc3ncccc3c(OC[C@@H]3CNCCO3)n2)cn1 [Compound 2.6, 7-(1-ethyl-1H-pyrazol-4-yl)-5-{[(2S)-morpholin-2-yl]methoxy}-1,6-naphthyridine] | 57.2 | 1530 | 15.6 |  |
| CC(C)n1cc(-c2cc3ncccc3c(OC[C@@H]3CNCCO3)n2)cn1 [Compound 2.7, 5-{[(2S)-morpholin-2-yl]methoxy}-7-[1-(propan-2-yl)-1H-pyrazol-4-yl]-1,6-naphthyridine] | 37.6 | 934 | 12.8 |  |
| COCCn1cc(-c2cc3ncccc3c(OC[C@@H]3CNCCO3)n2)cn1 [Compound 2.8, 7-[1-(2-methoxyethyl)-1H-pyrazol-4-yl]-5-{[(2S)-morpholin-2-yl]methoxy}-1,6-naphthyridine] | 196 | 1440 | 37.4 |  |
| COCn1cc(-c2cc3ncccc3c(OC[C@@H]3CNCCO3)n2)cn1 [Compound 2.9, 7-[1-(methoxymethyl)-1H-pyrazol-4-yl]-5-{[(2S)-morpholin-2-yl]methoxy}-1,6-naphthyridine] | 187 | 2360 | 40.6 |  |
| CC(C)(C)n1cc(-c2cc3ncccc3c(OC[C@@H]3CNCCO3)n2)cn1 [Compound 2.10, 7-(1-tert-butyl-1H-pyrazol-4-yl)-5-{[(2S)-morpholin-2-yl]methoxy}-1,6-naphthyridine] | 39.9 | 2780 | 14.5 |  |
| c1cnc2cc(-c3cnn(C4COC4)c3)nc(OC[C@@H]3CNCCO3)c2c1 [Compound 2.11, 5-{[(2S)-morpholin-2-yl]methoxy}-7-[1-(oxetan-3-yl)-1H-pyrazol-4-yl]-1,6-naphthyridine] | 131 |  | 18.2 |  |
| Cn1cc(-c2cc3ncccc3c(OCC3CNCC(C)(C)O3)n2)cn1 (centres unmarked) [Compound 2.13, 5-[(6,6-dimethylmorpholin-yl)methoxy]-7-(1-methyl-1H-pyrazol-4-yl)-1,6-naphthyridine] | 79 | 2400 | 51.6 |  |
| FC(F)n1cc(-c2cc3ncccc3c(OC[C@@H]3CNCCO3)n2)cn1 [Compound 2.15, 7-[1-(difluoromethyl)-1H-pyrazol-4-yl]-5-{[(2S)-morpholin-2-yl]methoxy}-1,6-naphthyridine] | 139 | 2890 | 74.8 |  |
| FC(F)(F)n1cc(-c2cc3ncccc3c(OC[C@@H]3CNCCO3)n2)cn1 [Compound 2.16, 5-{[(2S)-morpholin-2-yl]methoxy}-7-[1-(trifluoromethyl)-1H-pyrazol-4-yl]-1,6-naphthyridine] | 493 | > 10000 | 222 |  |
| FC(F)(F)c1[nH]ncc1-c1cc2ncccc2c(OC[C@@H]2CNCCO2)n1 [Compound 2.17, 5-{[(2S)-morpholin-2-yl]methoxy}-7-[5-(trifluoromethyl)-1H-pyrazol-4-yl]-1,6-naphthyridine] | 2460 | > 10000 | 789 |  |
| Cc1cc(-c2cc3ncccc3c(OC[C@@H]3CNCCO3)n2)cs1 [Compound 2.18, 7-(5-methylthiophen-3-yl)-5-{[(2S)-morpholin-2-yl]methoxy}-1,6-naphthyridine] | 78.2 | 1860 | 47.2 |  |
| Cc1ccc(-c2cc3ncccc3c(OC[C@@H]3CNCCO3)n2)s1 [Compound 2.19, 7-(5-methylthiophen-2-yl)-5-{[(2S)-morpholin-2-yl]methoxy}-1,6-naphthyridine] | 198 | 2780 | 68.5 |  |
| c1cnc2cc(-c3cnn(C4CC4)c3)nc(OC[C@@H]3CNCCO3)c2c1 [Compound 2.21, 7-(1-cyclopropyl-1H-pyrazol-4-yl)-5-{[(2S)-morpholin-2-yl]methoxy}-1,6-naphthyridine] | 61 | 2700 | 82.8 |  |
| c1cnc2cc(-c3cnn(C4CCC4)c3)nc(OC[C@@H]3CNCCO3)c2c1 [Compound 2.22, 7-(1-cyclobutyl-1H-pyrazol-4-yl)-5-{[(2S)-morpholin-2-yl]methoxy}-1,6-naphthyridine] | 30.6 | 694 | 28.1 |  |
| c1cnc2cc(-c3cn[nH]c3)nc(OC[C@@H]3CNCCO3)c2c1 [Compound 2.23, 5-{[(2S)-morpholin-2-yl]methoxy}-7-(1H-pyrazol-4-yl)-1,6-naphthyridine] | 440 | 5800 | 106 |  |
| Cn1cc(-c2cc3ncccc3c(OC[C@@H]3CNCC(C)(C)O3)n2)cn1 [Compound 2.32, 5-{[(2S)-6,6-dimethylmorpholin-2-yl]methoxy}-7-(1-methyl-1H-pyrazol-4-yl)-1,6-naphthyridine] | 48.4 | 4760 | 23.5 |  |
| Cn1cc(-c2cc3ncccc3c(OC[C@@H]3CNCC4(CC4)O3)n2)cn1 [Compound 2.43, 7-(1-methyl-1H-pyrazol-4-yl)-5-{[(5S)-4-oxa-7-azaspiro[2.5]octan-5-yl]methoxy}-1,6-naphthyridine] | 79.9 | 2520 | 31.9 |  |
| CC(C)n1cc(-c2cc3ncccc3c(OC[C@@H]3CNCC(C)(C)O3)n2)cn1 [Compound 2.45, 5-{[(2S)-6,6-dimethylmorpholin-2-yl]methoxy}-7-[1-(propan-2-yl)-1H-pyrazol-4-yl]-1,6-naphthyridine] | 17.8 | 1480 | 9.2 |  |
| FC(F)Cn1ccc(-c2cc(OC[C@@H]3CNCCO3)c3cccnc3c2)c1 [Compound 7.2, 7-[1-(2,2-difluoroethyl)-1H-pyrrol-3-yl]-5-{[(2S)-morpholin-2-yl]methoxy}quinoline] |  | 2110 | 10.1 | 2480 |
